According to patent publication US12642862B2, “Anti-CD79B antibody-drug conjugate, and preparation method therefor and pharmaceutical use thereof” (TUOJIE BIOTECH (SHANGHAI) CO., LTD., priority 2020, dated 2026):
“And” between values parts separate entries of the source, which are not always exact repeats. Equal values may be shown once. Read-outs that look alike come from different tables or passages of the source.

Key:
[1] = tested on: DOHH-2 cells highly expressing human CD79B protein; format: cell-based; details: DoHH2 cells, 20 μg/mL ADC, 37° C.
Method: A cell endocytosis experiment was performed with DOHH-2 cells (DSMZ, ACC 47) highly expressing human CD79B protein to assess the endocytosis ability of ADCs.
The cells were collected by low temperature centrifugation at 4° C. for 5 min at 1000 rpm during the experiment. The cells were resuspended in 10-15 mL of FACS buffer pre-cooled on ice. The FACS buffer was composed of phosphate buffered saline (PBS), pH 7.4, with 2% fetal bovine serum (FBS). Throughout the experiment, FACS buffer was pre-cooled on ice. The cells were counted and centrifuged, and added to a 96-well plate at 300,000 cells/well. After centrifugation, the supernatant was discarded, and 12.5 μg/mL Fc blocking solution (BD, Cat No.: 564220) was added at 100 μL/well. Blocking was performed at room temperature for 10 min. Then, 20 μg/mL test ADC was added to the corresponding wells, and the plate was incubated at 4° C. for 1 h away from the light. The plate was washed twice with a pre-cooled PBS buffer to remove unbound ADCs. A complete cell culture medium (RPMI 1640 medium with 10% fetal bovine serum) was added, and the plate was incubated at 37° C. with 5% CO2 for 0 h and 4 h. […] The cells were resuspended in an FACS buffer at 200 μL/well and detected using a flow cytometer (BD FACS Calibur).

WSU-DLCL2 = format: cell-based, human; details: WSU-DLCL2 (CD79B low-expression), 72 h, MTT
Method: (§1) This example was performed to evaluate the effect of different ADCs on the proliferation of DoHH2, WSU-DLCL2 and Raji cells cultured in vitro.
(§2) A certain number of cells in logarithmic growth phase were seeded into a 96-well culture plate, and drugs at different concentrations were added to the culture plate for reaction for 72 h. After the reaction was completed, an MTT working solution was added for reaction for 4 h, then blue-purple crystalline formazan was dissolved with a triplex solution.
(§3) From the inhibition rate at each concentration, the half maximal inhibitory concentration IC50 was calculated using PrismGraph 8.

human CD79B = molecular target: T1, human CD79B (Homo sapiens, UniProt P40259); assay: Biacore affinity assay of CD79B antibodies and ADCs; design: His; purchased Sino Biological 29750-H08H; details: binding force to human CD79B protein
T1 sequence (P40259 29-159 limits assumed): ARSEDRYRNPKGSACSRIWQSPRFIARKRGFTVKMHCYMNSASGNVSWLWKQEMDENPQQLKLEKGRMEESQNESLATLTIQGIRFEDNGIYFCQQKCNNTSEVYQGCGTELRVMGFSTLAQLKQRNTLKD
From the text: Experimental instruments, materials and reagents: Biacore T200 (GE); biosensor chip CM5 (Cat. #BR-1005-30, GE); amino coupling kit (Cat. #BR-1000-50, GE); human antibody capture kit (Cat. #BR-1008-39, GE); human CD79B-His protein (Cat. #29750-H08H, Sino Biological); HBS-EP+10× buffer (Cat. #BR-1006-69, GE) diluted to 1× (pH 7.4) with D. I. Water.
Experimental procedures: human antibody capture antibodies were covalently coupled to a CM5 biochip according to the method described instructions of the human antibody capture kit for affinity capture of a certain amount of CD79B antibody.
Statistics and analysis of data: data were fitted by BIAevaluation version 4.1, GE software using a (1:1) Langmuir model to obtain affinity values.

[2] = tested on: human follicular lymphoma DOHH-2-induced nude mouse subcutaneous xenograft tumor; format: in vivo, nude mice (BALB/c-nu); details: 1 mg/kg, IV
Method: This example was performed to further evaluate and compare the efficacy of ADC drugs on DoHH2-induced nude mouse subcutaneous xenograft tumor.
2. Cells and mice: DOHH-2 cells were purchased from DSMZ, Germany.
Nude mice, BALB/c-nu, 4-5 weeks of age, female, were purchased from Shanghai Lingchang Biotechnology Co., Ltd, with production license number of SCXK (Shanghai) 2018-0003, and animal certification number of 20180003010222. Housing environment: SPF grade.
3. […] The mice were administrated by intravenous injection (IV) at an administration volume of 10 mL/kg.
At the end of the experiment, at the experiment endpoint, or when the mean tumor volume in the solvent group reached 1500 mm^3, the animals were sacrificed by CO2 anesthesia and dissected to give the tumors. The tumors were photographed.

[3] = tested on: human diffuse large B-cell lymphoma WSU-DLCL2-induced nude mouse subcutaneous xenograft tumor; format: in vivo, nude mice (BALB/c-nu); details: 3 mg/kg, IV
Method: This example was performed to further evaluate and compare the efficacy of ADC drugs on WSU-DLCL2-induced nude mouse subcutaneous xenograft tumor.
Experimental steps: each nude mouse was subcutaneously inoculated with 2×10^7 WSU-DLCL2 cells, and after the tumor volume reached 100-150 mm^3, the animals were grouped according to tumor volume (D0). The mice were administrated by intravenous injection (IV) at an administration volume of 10 mL/kg. The tumor volumes and body weights were measured twice a week and the results were recorded.
Unless otherwise indicated, comparison between tumor volumes of the two groups was made by two-tailed Student's t-test, with P<0.05 defined as statistically significant difference.

Raji = format: cell-based; details: Raji (CD79B negative-expression), 72 h, MTT
Method: as §1, §2, §3

DoHH2 = format: cell-based, human; details: DoHH2 (CD79B high-expression), 72 h, MTT
Method: as §1, §2, §3

[4] = tested on: human diffuse large B-cell lymphoma WSU-DLCL2-induced nude mouse subcutaneous xenograft tumor; format: in vivo, nude mice (BALB/c-nu); details: for Mean tumor volume (mm^3 ± SEM) D0 / Mean tumor volume (mm^3 ± SEM) D21 / Tumor growth inhibition (%) D21 / T/C (%) D21 / Partial regression: IV; for Mean tumor volume (mm^3 ± SEM) D0: baseline at grouping; for Mean tumor volume (mm^3 ± SEM) D21 / Tumor growth inhibition (%) D21 / T/C (%) D21 / Partial regression: single dose D0; for T/C (%) D21: control IgG1; for Partial regression: tumors (of 6) with volume on D21 less than on D0
Method: This example was performed to evaluate and compare the efficacy of ADC drugs on nude mouse subcutaneous xenograft tumor.
Cells and mice: human diffuse large B-cell lymphoma WSU-DLCL2 cells were purchased from American Type Culture Collection. WSU-DLCL2 cells were cultured in a 10 cm petri dish with an RPMI 1640 culture medium (Gibco) containing 10% fetal bovine serum, penicillin and streptomycin and incubated in an incubator at 37° C. with 5% CO2. Subculturing was performed 2-3 times a week, and cells were collected, counted and seeded when they were in exponential growth phase.
Nude mice, BALB/c-nu, 35 days of age, female, were purchased from Beijing Huafukang Biotechnology Co., Ltd, with production license number of SCXK (Beijing) 2019-0008, and animal certification number of 1103222011004014. Housing environment: SPF grade.
The experimental index is to study the effect of the drug on the tumor growth, and the specific index is T/C % or tumor growth inhibition TGI (%).
Tumor diameters were measured twice a week with a vernier caliper and tumor volume (V) was calculated according to the following formula: V=½×a×b^2, where a and b represent length and width, respectively.
T/C (%)=(T−T0)/(C−C0)×100, where T and C represent the tumor volume of animals at the end of the experiment in the treatment group and control group, respectively; T0 and C0 represent the tumor volume of animals at the beginning of the experiment in the treatment group and control group, respectively; where T is the tumor volume of the ADC administered and C is the tumor volume of IgG1 administered as a control group.
At the end of the experiment, at the experiment endpoint, or when the mean tumor volume in the solvent group reached 1500 mm^3, the animals were sacrificed by CO2 anesthesia and dissected to give the tumors. The tumors were photographed. Unless otherwise indicated, comparison between tumor volumes of the two groups was made by two-way ANOVA test, with P<0.05 defined as statistically significant difference.

ADC-8: SN8 conjugated with MC-VC-PAB-MMAE; positive drug ADC-8 (namely Polivy) [reference compound]
Endocytosis rate (4 h) [1]: 76% | IC50 (WSU-DLCL2): 0.1169 µg/mL | EC50 (human CD79B): 5.98 nM | Mean tumor volume (mm^3) D0 ([2]; D0, baseline at grouping): 117.1 mm^3 | Mean tumor volume (mm^3) D20 ([2]; single dose D0, D20): 862.1 mm^3 | Tumor growth inhibition (%) D20 ([2]; single dose D0, D20): 41% | T/C (%) D20 ([2]; single dose D0, D20, control IgG1): 59% | Partial regression ([2]; single dose D0, tumors of 6): 0 | Mean tumor volume (mm^3) D0 ([3]; D0, baseline at grouping): 105.0 mm^3 | % T/C D21 ([3]; single dose D0, D21): 90% | % Tumor growth inhibition D21 ([3]; single dose D0, D21): 10% | Mean tumor volume (mm^3) D21 ([3]; single dose D0, D21): 792.6 mm^3 | Partial regression ([3]; single dose D0, tumors of 6): 0 | IC50 (Raji): >10 µg/mL | IC50 (DoHH2): 0.0806 µg/mL | efficacy on WSU-DLCL2-induced nude mouse subcutaneous xenograft tumor (conclusion) ([4]; 3 mg/kg or 10 mg/kg, single intravenous injection): significant efficacy | Mean tumor volume (mm^3 ± SEM) D0 ([4]; 3 mg/kg): 117.6 ± 3.0 mm^3 | Mean tumor volume (mm^3 ± SEM) D21 ([4]; 3 mg/kg): 547.2 ± 38.1 mm^3 | Tumor growth inhibition (%) D21 ([4]; 3 mg/kg): 39% | T/C (%) D21 ([4]; 3 mg/kg): 61% | Partial regression ([4]; 3 mg/kg): 0 | Mean tumor volume (mm^3 ± SEM) D0 ([4]; 10 mg/kg): 115.0 ± 3.7 mm^3 | Mean tumor volume (mm^3 ± SEM) D21 ([4]; 10 mg/kg): 167.8 ± 50.3 mm^3 | Tumor growth inhibition (%) D21 ([4]; 10 mg/kg): 93% | T/C (%) D21 ([4]; 10 mg/kg): 7% | Partial regression ([4]; 10 mg/kg): 4/6 and 4
